Test results published in patent publication US11572350B1, “Benzothia(di)azepine compounds and their use as bile acid modulators” (Albireo AB, priority 2020, dated 2023).

Key:
human IBAT = target: T1, human IBAT (Homo sapiens, UniProt Q12908); assay: IBAT (h/m) assay: 3H-taurocholic acid uptake in human IBAT-overexpressing cells; assay type: cell-based; details: 0.25 μM 3H-taurocholic acid and 5 μM cold taurocholic acid, 20 minutes, highest test concentration 10 μM, read-out: hIBAT IC50
T1 construct: expressed in transfected cells; kept under Puromycin selection
T1 sequence (Q12908 1-348): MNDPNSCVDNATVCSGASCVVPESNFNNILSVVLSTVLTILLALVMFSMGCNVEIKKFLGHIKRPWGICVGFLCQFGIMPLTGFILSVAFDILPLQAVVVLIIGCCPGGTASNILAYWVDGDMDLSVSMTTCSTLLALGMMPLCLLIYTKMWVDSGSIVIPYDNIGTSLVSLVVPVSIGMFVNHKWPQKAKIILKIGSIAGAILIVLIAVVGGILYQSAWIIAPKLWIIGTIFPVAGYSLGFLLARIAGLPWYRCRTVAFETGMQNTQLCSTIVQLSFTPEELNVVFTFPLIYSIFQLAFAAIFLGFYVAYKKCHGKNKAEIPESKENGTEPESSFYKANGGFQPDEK
Description: IBAT (h/m) Assay Protocol
10,000 cells (Human or Mouse IBAT-overexpressing cells) were seeded in 96-wells plate (Corning CLS3809) in 200 μL MEM-alpha medium (Gibco 12571-063) supplemented with 10% FBS (Gibco 10438026) containing Puromycin (Gibco A1113803) (10 μg/mL) and incubated at 37° C. in 5% CO2 for 48 hours. After incubation, media was decanted from the wells and cells were washed two times with 300 μL of basal MEM-alpha medium (FBS-free). After decanting basal MEM-alpha medium each time, plates were tapped against paper towel to ensure maximum removal of residual media. Test inhibitor dilutions (highest test concentration being 10 μM, 3-fold serial dilution, 10 points) prepared in DMSO (Sigma D2650) were added in incubation mix (maintaining 0.2% final DMSO concentration) containing 0.25 μM 3H-taurocholic acid (ARC ART-1368) and 5 μM of cold taurocholic acid (Sigma T4009). 50 μL of incubation mix containing test inhibitors was then added to the wells (in duplicate) and the plates were incubated for 20 minutes in a CO2 incubator at 37° C. After incubation, the reaction was stopped by keeping the plates on ice water mix for 2-3 minutes and then the incubation mix was aspirated completely from the wells. The wells were washed two times with 250 μL of chilled unlabelled 1 mM taurocholic acid dissolved in HEPES (Gibco 15630080)-buffered (10 mM) HBSS (Gibco 14175079) (pH 7.4). The plates were tapped against a paper towel after every wash to ensure maximum removal of blocking buffer.
(§1) 100 μL of MicroScint-20 (PerkinElmer 6013621) was added to the wells and kept overnight at room temperature before reading the plates in TopCount NXT™ Microplate Scintillation and Luminescence Counter from PerkinElmer under 3H Test protocol (set at 120 seconds reading time per well).
(§2) Preparation of Test Compound Dilutions
(§3) All test compounds were provided in powder form at room temperature. 10 mM DMSO stocks of the test compounds were prepared, aliquoted and stored at −20° C. From the 10 mM DMSO stock of the compounds, a 3-fold serial dilution in DMSO was prepared to get a total of 10 dilutions of the test compounds. 0.5 μL of this dilution in DMSO was added to 250 μL of FBS-free basal media containing 3H-taurocholic acid and cold taurocholic acid to prepare the incubation mixture.

human LBAT = target: T2, human LBAT (Homo sapiens, UniProt Q14973); assay: LBAT (h/m) assay: 3H-taurocholic acid uptake in human LBAT-overexpressing cells; assay type: cell-based; details: 0.3 μM 3H-taurocholic acid and 7.5 μM cold taurocholic acid, 20 minutes, read-out: hLBAT IC50
T2 construct: expressed in transfected cells; kept under Geneticin selection
T2 sequence (Q14973 1-349): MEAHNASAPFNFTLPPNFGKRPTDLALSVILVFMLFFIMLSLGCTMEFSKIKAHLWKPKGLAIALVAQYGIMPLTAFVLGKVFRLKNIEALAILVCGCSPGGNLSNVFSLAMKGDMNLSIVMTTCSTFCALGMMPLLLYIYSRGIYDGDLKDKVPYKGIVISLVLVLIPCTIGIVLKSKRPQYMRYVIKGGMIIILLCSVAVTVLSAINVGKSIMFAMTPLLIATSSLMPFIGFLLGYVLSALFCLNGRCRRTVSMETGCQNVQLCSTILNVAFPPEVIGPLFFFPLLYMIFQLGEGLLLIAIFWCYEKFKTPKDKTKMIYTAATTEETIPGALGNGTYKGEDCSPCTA
Description: LBAT (h/m) Assay Protocol
20,000 cells (Human or Mouse LBAT-overexpressing cells) were seeded in 96-wells plate (Corning CLS3809) in 100 μL MEM-alpha medium (Gibco 12571-063) supplemented with 10% FBS (Gibco 10438026) containing Geneticin (Gibco 10131-027) (1 mg/mL) and incubated at 37° C. in 5% CO2 for 24 hours. After incubation, media was decanted from the wells and cells were washed two times with 300 μL of basal MEM-alpha medium (FBS-free). After decanting basal MEM-alpha medium each time, plates were tapped against paper towel to ensure maximum removal of residual media. For human LBAT, incubation mix was prepared by adding test inhibitor dilutions (3-fold serial dilution in DMSO (Sigma D2650), 10 points) in MEM-alpha (without FBS) containing 0.3 μM 3H-taurocholic acid (ARC ART-1368) and 7.5 μM cold taurocholic acid (Sigma T4009) (maintaining 0.2% final DMSO concentration). For mouse LBAT, incubation mix was prepared by adding test inhibitor dilutions (3-fold serial dilution in DMSO, 10 points) in MEM-alpha (without FBS) containing 0.3 μM 3H-taurocholic acid and 25 μM cold taurocholic acid maintaining 0.2% final DMSO concentration). 50 μL of incubation mix containing test inhibitors was then added to the wells (in duplicate) and the plates were incubated for 20 minutes in a CO2 incubator at 37° C. After incubation, the reaction was stopped by keeping the plates on ice water mix for 2-3 minutes and then the incubation mix was aspirated completely from the wells. The wells were washed two times with 250 μL of chilled unlabelled 1 mM taurocholic acid dissolved in HEPES (Gibco 15630080)-buffered (10 mM) HBSS (Gibco 14175079) (pH 7.4). The plates were tapped against a paper towel after every wash to ensure maximum removal of blocking buffer.
as §1, with “well, with normal plate orientation).” for “well).”
as §2, §3

[1] = Bidirectional permeability assay (Caco-2 cells); assay type: in vitro ADME; details: human, FaSSIF donor buffer, 120 minutes at 37° C.
Source text: Bidirectional Permeability Assay (Caco-2 Cells)
HepaRG-Based Assay Protocol

Row | Structure (SMILES) | IC50 (human IBAT) [nM] | IC50 (human LBAT) [nM] | Papp A→B at 120 min, 10 µM ([1]; Caco-2, pH 7.4, absorptive direction (A2B)) [×10⁻⁶ cm/s] | Papp B→A at 120 min, 10 µM ([1]; Caco-2, pH 7.4, secretory direction (B2A)) [×10⁻⁶ cm/s]
1 | CCCCC1CN(c2ccc(F)cc2)c2cc(SCC)c(O/C=C(\F)C(=O)O)cc2S(=O)(=O)C1 (single isomer, unassigned) [Example 17, (Z)-3-((3-butyl-7-(ethylthio)-5-(4-fluorophenyl)-1,1-dioxido-2,3,4,5-tetrahydro-1,5-benzothiazepin-8-yl)oxy)-2-fluoroacrylic acid] | > 3330 | 5.5 |  | 
2 | CCCCC1CN(c2ccccc2)c2cc(SCC)c(O/C=C/C(=O)O)cc2S(=O)(=O)N1 (racemic) [Example 4, (E)-3-((3-Butyl-7-(ethylthio)-1,1-dioxido-5-phenyl-2,3,4,5-tetrahydro-1,2,5-benzothiadiazepin-8-yl)oxy)acrylic acid] | > 10000 | 3.4 |  | 
3 | CCCCC1CN(c2ccc(F)cc2)c2cc(SC)c(O/C=C(\F)C(=O)O)cc2S(=O)(=O)C1 (single isomer, unassigned) [Example 12, (Z)-3-((3-butyl-5-(4-fluorophenyl)-7-(methylthio)-1,1-dioxido-2,3,4,5-tetrahydro-1,5-benzothiazepin-8-yl)oxy)-2-fluoroacrylic acid] | 1420 | 15 |  | 
4 | CCCCC1CN(c2ccc(F)cc2)c2cc(SCC)c(O/C=C/C(=O)O)cc2S(=O)(=O)C1 (single isomer, unassigned) [Example 9, (E)-3-((3-butyl-7-(ethylthio)-5-(4-fluorophenyl)-1,1-dioxido-2,3,4,5-tetrahydro-1,5-benzothiazepin-8-yl)oxy)acrylic acid] |  | 2 | 15.5 | 18.6
5 | CCCCC1CN(c2ccc(F)cc2)c2cc(SC)c(O/C=C(\F)C(=O)O)cc2S(=O)(=O)N1C (single isomer, unassigned) [Example 21, (Z)-3-((3-butyl-5-(4-fluorophenyl)-2-methyl-7-(methylthio)-1,1-dioxido-2,3,4,5-tetrahydro-1,2,5-benzothiadiazepin-8-yl)oxy)-2-fluoroacrylic acid] | > 3330 | 10.1 |  | 
6 | CCCCC1CN(c2ccc(F)cc2)c2cc(SC)c(O/C=C(\F)C(=O)O)cc2S(=O)(=O)N1 (racemic) [Example 27, (Z)-3-((3-butyl-5-(4-fluorophenyl)-7-(methylthio)-1,1-dioxido-2,3,4,5-tetrahydro-1,2,5-benzothiadiazepin-8-yl)oxy)-2-fluoroacrylic acid] | 481 | 13 |  | 
7 | CCCCC1CN(c2ccc(F)cc2)c2cc(SCC)c(O/C=C/C(=O)O)cc2S(=O)(=O)C1 (single isomer, unassigned) [Example 8, (E)-3-((3-butyl-7-(ethylthio)-5-(4-fluorophenyl)-1,1-dioxido-2,3,4,5-tetrahydro-1,5-benzothiazepin-8-yl)oxy)acrylic acid] | > 10000 | > 333 |  | 
8 | CCCCC1CN(c2ccc(F)cc2)c2cc(SCC)c(O/C=C(\F)C(=O)O)cc2S(=O)(=O)N1C (single isomer, unassigned) [Example 23, (Z)-3-((3-butyl-7-(ethylthio)-5-(4-fluorophenyl)-2-methyl-1,1-dioxido-2,3,4,5-tetrahydro-1,2,5-benzothiadiazepin-8-yl)oxy)-2-fluoroacrylic acid] | > 3330 | 70 |  | 
9 | CCCCC1CN(c2ccc(F)cc2)c2cc(SC)c(O/C=C(\F)C(=O)O)cc2S(=O)(=O)C1 (single isomer, unassigned) [Example 11, (Z)-3-((3-butyl-5-(4-fluorophenyl)-7-(methylthio)-1,1-dioxido-2,3,4,5-tetrahydro-1,5-benzothiazepin-8-yl)oxy)-2-fluoroacrylic acid] | 519 | 0.9 |  | 
10 | CCCCC1CN(c2ccccc2)c2cc(SCC)c(O/C=C(\F)C(=O)O)cc2S(=O)(=O)N1C (racemic) [Example 24, (Z)-3-((3-butyl-7-(ethylthio)-2-methyl-1,1-dioxido-5-phenyl-2,3,4,5-tetrahydro-1,2,5-benzothiadiazepin-8-yl)oxy)-2-fluoroacrylic acid] | 1790 | 1.3 |  | 
11 | CCCCC1CN(c2ccccc2)c2cc(SCC)c(O/C=C(\F)C(=O)O)cc2S(=O)(=O)C1 (single isomer, unassigned) [Example 14, (Z)-3-((3-butyl-7-(ethylthio)-1,1-dioxido-5-phenyl-2,3,4,5-tetrahydro-1,5-benzothiazepin-8-yl)oxy)-2-fluoroacrylic acid] | > 10000 | 21 |  | 
12 | CCCCC1CN(c2ccccc2)c2cc(SCC)c(O/C=C(\F)C(=O)O)cc2S(=O)(=O)N1C (single isomer, unassigned) [Example 26, (Z)-3-((3-butyl-7-(ethylthio)-2-methyl-1,1-dioxido-5-phenyl-2,3,4,5-tetrahydro-1,2,5-benzothiadiazepin-8-yl)oxy)-2-fluoroacrylic acid] | 1130 | 131 |  | 
13 | CCCCC1CN(c2ccc(F)cc2)c2cc(SC)c(O/C=C/C(=O)O)cc2S(=O)(=O)N1 (single isomer, unassigned) [Example 2, (E)-3-((3-butyl-5-(4-fluorophenyl)-7-(methylthio)-1,1-dioxido-2,3,4,5-tetrahydro-1,2,5-benzothiadiazepin-8-yl)oxy)acrylic acid] | > 10000 | 278 |  | 
14 | CCCCC1CN(c2ccccc2)c2cc(SCC)c(O/C=C/C(=O)O)cc2S(=O)(=O)N1 (single isomer, unassigned) [Example 5, (E)-3-((3-butyl-7-(ethylthio)-1,1-dioxido-5-phenyl-2,3,4,5-tetrahydro-1,2,5-benzothiadiazepin-8-yl)oxy)acrylic acid] | 8810 | 3.4 |  | 
